Results as given in paper PMC6332312, “N-Monosubstituted Methoxy-oligo(ethylene glycol) Carbamate Ester Prodrugs of Resveratrol” (Molecules, 2015).

Key:
[1] = Stability (hydrolysis) in rodent whole blood, 37 °C; format: in vitro ADME; conditions: rat blood; for kIII (hydrolysis rate constant, tri- to disubstituted): pseudo-first order fit; for half-life at 5 µM: whole blood, 5 µM compound
Protocol: (§1) Kinetic analysis of the data was performed by assuming that hydrolysis to resveratrol occurred via consecutive losses of the three protecting groups in pseudo-first order processes and by considering each pair of isomeric intermediates (potentially) resulting from the first and second hydrolysis steps as a single species, i.e. the two monosubstituted and the two disubstituted intermediates were handled as species I and II, respectively (Scheme 3).
Rats were anesthetized and blood was withdrawn from the jugular vein, heparinised and transferred into tubes containing EDTA. Blood samples (1 mL) were spiked with 5 µM compound (dilution from a 5 mM stock solution in DMSO), and incubated at 37 °C for 4 h (the maximum period allowed by blood stability). Aliquots were taken after 10 min, 30 min, 1 h, 2 h and 4 h and treated as described below (blood sample treatment and analysis). Cleared blood samples were finally subjected to HPLC-UV analysis.
(§2) Before starting the treatment, 4,4′-dihydroxybiphenyl was added as internal standard to a carefully-measured blood volume (25 µM final concentration). Blood was then stabilized with a freshly-prepared 10 mM solution of ascorbic acid (0.1 vol) and acidified with 0.6 M acetic acid (0.1 vol); after mixing, an excess of acetone (4 vol) was added, followed by sonication (2 min) and centrifugation (12,000× g, 7 min, 4 °C). The supernatant was finally collected and stored at −20 °C. Before analysis, acetone was allowed to evaporate at room temperature using a Univapo 150H (UniEquip, Martinsried, Germany) vacuum concentrator centrifuge, and up to 40 μL of CH3CN were added to precipitate residual proteins. After centrifugation (12,000× g, 5 min, 4 °C), cleared samples were directly subjected to HPLC-UV analysis. Metabolites and hydrolysis products were identified by comparison of chromatographic retention time with true samples.

[2] = Pharmacokinetic study after single intragastric bolus to rats; format: in vivo, male Wistar rats; conditions: rat, single intragastric bolus 88 µmol/kg; for Tmax: male, Wistar, whole blood, po, 88 umol/kg, read-out: time of peak blood level after administration (converted); for peak blood concentration of prodrug (absorption): N = 3
Protocol: All the N-monosubstituted methoxy-oligo(ethylene glycol) carbamate ester prodrugs were tested for their in vivo absorption and metabolism. Pharmacokinetic studies were performed with rats, and each compound was administered as a single intragastric bolus, in an equimolar dose/kg body weight (88 µmol/kg). Blood samples were taken at different time points, treated as described in the Materials and Methods section and analyzed.
as §2
Derivatives 2–4 were administered to overnight-fasted male Wistar rats from the facility of the Department of Biomedical Sciences, University of Padova, as a single intragastric dose (88 µmol/kg, dissolved in 250 µL DMSO) delivered with a commercial stainless steel feeding tube (www.2biol.com) to have a precise starting time. Wistar rats are commonly used for such studies (e.g., [60]). Relatively young adults (3–5 months) were used in order to have a fully developed metabolism as well as a body weight (300–400 g) which would limit the amount of synthetic compound to be used.
Blood samples were obtained by the tail bleeding technique: before drug administration, rats were anesthetized with isoflurane and the tip of the tail was cut off; blood samples (80–100 µL each) were then taken from the tail tip at different time points after drug administration. Blood was collected in heparinized tubes, kept in ice and treated as described above within 10 min. All experiments involving animals were performed with the permission and supervision of the University of Padova Ethical Committee for Experimentation on Animals (CEASA) and Central Veterinary Service, in compliance with Italian Law DL 116/92, embodying EU Directive 86/609. Significance in comparisons was assessed using the Wilcoxon Rank Test.

[3] = Hydrolysis in PBS 0.1 M at pH 6.8 (intestinal pH), 37 °C; format: physicochemical; conditions: pH 6.8, 37 °C; for half-life at 5 µM: 0.1 M PBS buffer, 5 µM compound; for kII (hydrolysis rate constant, di- to monosubstituted) / kIII (hydrolysis rate constant, tri- to disubstituted): pseudo-first order fit
Protocol: as §1
As hydrolysis proceeds resveratrol will eventually form with the kinetics dictated by the constants, up to 100% conversion. The fit of the experimental data was obtained using a set of equations analogous to those utilized by Kozerski et al. and in our previous work.
The chemical stability of all new compounds was tested in aqueous media imitating gastric (0.1 N HCl, NormaFix) and intestinal (0.1 M PBS buffer, at pH 6.8) pH conditions. A 5 µM solution of the compound was prepared from a 5 mM stock solution in DMSO, and incubated at 37 °C for 24 h; samples withdrawn at different times were analyzed by HPLC-UV. Hydrolysis products were identified by HPLC/ESI-MS analysis of selected samples. Non-linear curve fitting was performed using Origin 8.0 data analysis software, using the equations described in [61, 62].

| Compound | kIII (hydrolysis rate constant, tri- to disubstituted) [1] | half-life at 5 µM [1] | Tmax [2] | appearance of resveratrol, derivatives or metabolites (stilbene derivatives) in blood samples [2] | peak blood concentration of prodrug (absorption) [2] | half-life at 5 µM [3] | kII (hydrolysis rate constant, di- to monosubstituted) [3] | kIII (hydrolysis rate constant, tri- to disubstituted) [3] |
| --- | --- | --- | --- | --- | --- | --- | --- | --- |
| COCCOCCOCCOCCOCCOCCNC(=O)Oc1ccc(/C=C/c2cc(OC(=O)NCCOCCOCCOCCOCCOCCOC)cc(OC(=O)NCCOCCOCCOCCOCCOCCOC)c2)cc1 [Compound 4, (E)-5-(4-(2,5,8,11,14,17-Hexaoxanonadecan-19-ylcarbamate)styryl)-1,3-phenylene bis(2,5,8,11,14,17-hexaoxanonadecan-19-ylcarbamate)] | 1.25 ± 0.08 h⁻¹ | 30 min | 10 min | measurable levels | 0.1 µM | 270 min | 0.051 ± 0.001 h⁻¹ | 0.158 ± 0.002 h⁻¹ |
| COCCOCCOCCNC(=O)Oc1ccc(/C=C/c2cc(OC(=O)NCCOCCOCCOC)cc(OC(=O)NCCOCCOCCOC)c2)cc1 [Compound 2, (E)-5-(4-(2-(2-(2-Methoxyethoxy)ethoxy)ethyl)carbamate)-1,3-phenylene bis((2-(2-(2-methoxyethoxy)ethoxy)ethyl)carbamate)] | 1.47 ± 0.08 h⁻¹ | 30 min |  | did not result in the appearance of detectable amounts |  | 360 min | 0.030 ± 0.002 h⁻¹ | 0.104 ± 0.002 h⁻¹ |
| COCCOCCOCCOCCNC(=O)Oc1ccc(/C=C/c2cc(OC(=O)NCCOCCOCCOCCOC)cc(OC(=O)NCCOCCOCCOCCOC)c2)cc1 [Compound 3, (E)-5-(4-(5,8,11-Tetraoxatridecan-13-ylcarbamate)styryl)-1,3-phenylene bis(2,5,8,11-tetraoxatridecan-13-ylcarbamate)] | 2.0 ± 0.2 h⁻¹ | 18 min | 10 min | measurable levels | 0.3 µM | 210 min | 0.042 ± 0.005 h⁻¹ | 0.134 ± 0.007 h⁻¹ |
